Data reported in article PMC7435983, “Galantamine-Curcumin Hybrids as Dual-Site Binding Acetylcholinesterase Inhibitors” (Molecules, 2020).
Like-named read-outs stand apart in the source and are kept apart here. Marks after values point to notes of the source that are not given here.

Assays:
Neuro-2A cells [1] = assay: Neurotoxicity test, MTT-dye reduction assay; format: cell-based, Murine; settings: Mus musculus, N2a, 72-h incubation
Description: The neurotoxicity of the GAL-CU hybrids was tested on Neuro-2A cells, as described in Materials and methods. […] Only five of the hybrids were less toxic than CU. One of them, compound 8b, is among the best-scored compounds; two of them, compounds 4e and 4f, are from the middle GoldScore range; and two of them, compounds 4a and 4b, belong to the low GoldScore range.
Murine neuroblastoma Neuro-2A cells (German collection DSMZ, Braunschweig, Germany) were cultivated under standard conditions: complete medium (90% DMEM, 10% heat-inactivated FBS, and non-essential amino acids); 37 °C and 5% CO2 in fully humidified atmosphere. The cell line was kept in the logarithmic growth phase by splitting 1:4 once a week using trypsin/EDTA. About 30% of the cells grew like neuronal cells. For the experimental evaluation of the cytotoxicity Neuro-2A, cells were plated in 96-well flat-bottomed cell culture plates at the recommended density of 1 × 10^6 cells/25cm^2. After 24 h, the cells were treated with various concentrations of the investigational compounds, and after 72-h incubation, an MTT-dye reduction assay was performed. Briefly, at the end of incubation, an MTT stock solution (10mg/mL in PBS) was added (0.01 mL/well). Plates were further incubated at 37 °C for 4 h. Next, the formazan crystals were dissolved by the addition of 0.110 mL/well 5% formic acid in 2-propanol (v/v). Absorption was measured at 580nm wavelength on an automated ELISA reader Labexim LMR1. At least six wells per concentration were used, and data were processed using the GraphPad Prism 5.0 software 2.0 (San Diego, CA, USA).

[2] = biological target: eeAChE (Electrophorus electricus AChE) (Electrophorus electricus, UniProt O42275); assay: biochemical
Chain of eeAChE (Electrophorus electricus AChE) (O42275 24-633): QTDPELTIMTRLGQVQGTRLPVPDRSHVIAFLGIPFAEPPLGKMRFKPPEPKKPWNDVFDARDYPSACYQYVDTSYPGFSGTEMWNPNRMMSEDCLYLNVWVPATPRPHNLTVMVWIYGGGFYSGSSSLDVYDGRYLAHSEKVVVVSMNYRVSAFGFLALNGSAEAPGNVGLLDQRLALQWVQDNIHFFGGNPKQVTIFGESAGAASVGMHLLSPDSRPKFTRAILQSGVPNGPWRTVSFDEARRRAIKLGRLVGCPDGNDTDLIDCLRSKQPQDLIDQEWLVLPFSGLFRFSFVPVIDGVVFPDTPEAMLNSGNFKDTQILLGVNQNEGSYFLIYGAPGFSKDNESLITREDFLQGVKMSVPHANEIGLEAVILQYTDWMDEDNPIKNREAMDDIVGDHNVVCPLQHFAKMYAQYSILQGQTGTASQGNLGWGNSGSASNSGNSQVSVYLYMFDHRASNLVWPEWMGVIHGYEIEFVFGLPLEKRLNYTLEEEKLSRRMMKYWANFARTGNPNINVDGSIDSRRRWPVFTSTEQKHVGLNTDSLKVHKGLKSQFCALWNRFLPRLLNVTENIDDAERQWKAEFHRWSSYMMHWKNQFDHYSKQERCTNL
Description: As the docking studies were performed on rhAChE, while for the in vitro measurements was used AChE from electric eel (eeAChE), it was reasonably to question their relevance.
AChE activity was assayed as described by Ellman et al., with some modifications. […] The mixtures were incubated for 30 min at room temperature before the addition of 30 μL of the substrate solution (15 μL […], 15 μL 0.6 mM ATCI in buffer, pH 7.6).

[3] = Prediction of PK parameters by QSPR models
From the text: The key PK parameters were predicted by quantitative […] (QSPRs) models derived previously. Three PK parameters were modelled: the steady state volume of distribution (VD^ss), free fraction of drug in plasma (fu) and unbound clearance (CLu). […]

Neuro-2A cells [4] = settings: cited from earlier work
[5] = cited from earlier work

SMILES	IC50 (Neuro-2A cells [1])	IC50 [2]	Times More Active Than GAL [2]	further results
COc1ccc(/C=C/C(=O)CCCCN2CC[C@@]34C=C[C@H](O)C[C@@H]3Oc3c(OC)ccc(c34)C2)cc1 [4b]	52.5 µM	0.02 µM	186	
COc1ccc2c3c1O[C@H]1C[C@@H](O)C=C[C@@]31CCN(Cc1cccc(C(=O)/C=C/c3cccc(C)c3)c1)C2 [8g]	17.8 µM			
COc1cccc(/C=C/C(=O)c2cccc(CN3CC[C@@]45C=C[C@H](O)C[C@@H]4Oc4c(OC)ccc(c45)C3)c2)c1 [8c]	25.6 µM			
COc1ccc2c3c1O[C@H]1C[C@@H](O)C=C[C@@]31CCN(Cc1cccc(/C=C/C(=O)c3ccccc3)c1)C2 [6a]	12.1 µM			
COc1ccc(/C=C/C(=O)c2cccc(CN3CC[C@@]45C=C[C@H](O)C[C@@H]4Oc4c(OC)ccc(c45)C3)c2)cc1 [8b]	28.9 µM	0.086 µM	41	
COc1cccc(/C=C/C(=O)CCCCN2CC[C@@]34C=C[C@H](O)C[C@@H]3Oc3c(OC)ccc(c34)C2)c1 [4c]	24.1 µM			
COc1cc(/C=C/C(=O)CC(=O)/C=C/c2ccc(O)c(OC)c2)ccc1O [CU, (1E,6E)-1,7-Bis(4-hydroxy-3-methoxyphenyl)hepta-1,6-diene-3,5-dione, reference compound]	26.3 µM			
COc1ccc(C(=O)/C=C/c2cccc(CN3CC[C@@]45C=C[C@H](O)C[C@@H]4Oc4c(OC)ccc(c45)C3)c2)cc1 [6b]	7.91 µM			
COc1ccc2c3c1O[C@H]1C[C@@H](O)C=C[C@@]31CCN(CCCCC(=O)/C=C/c1cccc(C)c1)C2 [4g]	23.7 µM			
COc1ccc2c3c1O[C@H]1C[C@@H](O)C=C[C@@]31CCN(CCCCC(=O)/C=C/c1ccc(C)cc1)C2 [4f]	34.4 µM	0.033 µM	110	
COc1ccc2c3c1O[C@H]1C[C@@H](O)C=C[C@@]31CCN(CCCCC(=O)/C=C/c1ccccc1)C2 [4a]	30.7 µM	0.046 µM	75	
COc1ccc2c3c1O[C@H]1C[C@@H](O)C=C[C@@]31CCN(Cc1cccc(C(=O)/C=C/c3ccc(C)cc3)c1)C2 [8f]	24.3 µM			
COc1ccc2c3c1O[C@H]1C[C@@H](O)C=C[C@@]31CCN(CCCCC(=O)/C=C/c1ccc(C)c(C)c1)C2 [4h]	21.9 µM			
COc1ccc2c3c1O[C@H]1C[C@@H](O)C=C[C@@]31CCN(Cc1cccc(C(=O)/C=C/c3ccc(C)c(C)c3)c1)C2 [8h]	25 µM			
COc1ccc2c3c1O[C@H]1C[C@@H](O)C=C[C@@]31CCN(C)C2 [GAL, Galantamine]				half-life [3]: 4.74 h; IC50 (Neuro-2A cells [4]): > 50 µM; VDss [5]: 2.30 ^a L/kg; fu ([5]; free fraction of drug in plasma): 0.83 ^a; CL ([5]; total clearance): 0.336 ^a L/h/kg
COc1ccc2c3c1O[C@H]1C[C@@H](O)C=C[C@@]31CCN(CCCCC(=O)/C=C/c1ccc3c(c1)OCO3)C2 [4e]	42.9 µM	0.036 µM	98	
